Test results reported in patent publication US20240392348A1, “METHODS AND COMPOSITIONS USEFUL FOR NUCLEIC ACID SEQUENCING” (Singular Genomics Systems, Inc., priority 2021, published 2024).

Test system: polymerase
Assay type: biochemical
From the text: The incorporation score is a direct reflection of the incorporation half time; +++ refers to 4 to 14 seconds, ++ refers to 15 to 25 seconds, and + refers to greater than 25 seconds. The next base incorporation score reflects the incorporation half time for the next base, C refers to 20 to 100 seconds, B refers to 101 to 200 seconds, and A refers to greater than 200 seconds.

## O=C(O)CCCC[C@@H]1SC[C@@H]2NC(=O)N[C@@H]21 [biotin]
Nucleobase not stated
  incorporation score: + (+ refers to greater than 25 seconds)
Same experimental conditions for biotin and rhodamine dye
  incorporation halftime: 28 s
